Consider two compounds from patent US20070281330A1, “Method for Examining the Activity of Ion Channels” (priority 2004, published 2007).

Where “and” joins values, the source holds several entries; their conditions need not be identical. Equal entries are not always repeated.

One experiment deals with sodium channel SCN5a (Homo sapiens, UniProt Q14524). In kind it is cell-based.
Another experiment concerns the target T1, Kv1.3 (Homo sapiens, UniProt P22001).
T1 construct: expressed in transfected cells
Description: FMP membrane potential assay on Kv1.3, suspension cells. In kind it is cell-based. As to conditions: 100 nM Margatoxin, FMP dye.

Setting [1] is: 110 min 1° C. (after 10 min room temperature).

sodium channel SCN5a, sequence (Q14524 whole entry, looked up): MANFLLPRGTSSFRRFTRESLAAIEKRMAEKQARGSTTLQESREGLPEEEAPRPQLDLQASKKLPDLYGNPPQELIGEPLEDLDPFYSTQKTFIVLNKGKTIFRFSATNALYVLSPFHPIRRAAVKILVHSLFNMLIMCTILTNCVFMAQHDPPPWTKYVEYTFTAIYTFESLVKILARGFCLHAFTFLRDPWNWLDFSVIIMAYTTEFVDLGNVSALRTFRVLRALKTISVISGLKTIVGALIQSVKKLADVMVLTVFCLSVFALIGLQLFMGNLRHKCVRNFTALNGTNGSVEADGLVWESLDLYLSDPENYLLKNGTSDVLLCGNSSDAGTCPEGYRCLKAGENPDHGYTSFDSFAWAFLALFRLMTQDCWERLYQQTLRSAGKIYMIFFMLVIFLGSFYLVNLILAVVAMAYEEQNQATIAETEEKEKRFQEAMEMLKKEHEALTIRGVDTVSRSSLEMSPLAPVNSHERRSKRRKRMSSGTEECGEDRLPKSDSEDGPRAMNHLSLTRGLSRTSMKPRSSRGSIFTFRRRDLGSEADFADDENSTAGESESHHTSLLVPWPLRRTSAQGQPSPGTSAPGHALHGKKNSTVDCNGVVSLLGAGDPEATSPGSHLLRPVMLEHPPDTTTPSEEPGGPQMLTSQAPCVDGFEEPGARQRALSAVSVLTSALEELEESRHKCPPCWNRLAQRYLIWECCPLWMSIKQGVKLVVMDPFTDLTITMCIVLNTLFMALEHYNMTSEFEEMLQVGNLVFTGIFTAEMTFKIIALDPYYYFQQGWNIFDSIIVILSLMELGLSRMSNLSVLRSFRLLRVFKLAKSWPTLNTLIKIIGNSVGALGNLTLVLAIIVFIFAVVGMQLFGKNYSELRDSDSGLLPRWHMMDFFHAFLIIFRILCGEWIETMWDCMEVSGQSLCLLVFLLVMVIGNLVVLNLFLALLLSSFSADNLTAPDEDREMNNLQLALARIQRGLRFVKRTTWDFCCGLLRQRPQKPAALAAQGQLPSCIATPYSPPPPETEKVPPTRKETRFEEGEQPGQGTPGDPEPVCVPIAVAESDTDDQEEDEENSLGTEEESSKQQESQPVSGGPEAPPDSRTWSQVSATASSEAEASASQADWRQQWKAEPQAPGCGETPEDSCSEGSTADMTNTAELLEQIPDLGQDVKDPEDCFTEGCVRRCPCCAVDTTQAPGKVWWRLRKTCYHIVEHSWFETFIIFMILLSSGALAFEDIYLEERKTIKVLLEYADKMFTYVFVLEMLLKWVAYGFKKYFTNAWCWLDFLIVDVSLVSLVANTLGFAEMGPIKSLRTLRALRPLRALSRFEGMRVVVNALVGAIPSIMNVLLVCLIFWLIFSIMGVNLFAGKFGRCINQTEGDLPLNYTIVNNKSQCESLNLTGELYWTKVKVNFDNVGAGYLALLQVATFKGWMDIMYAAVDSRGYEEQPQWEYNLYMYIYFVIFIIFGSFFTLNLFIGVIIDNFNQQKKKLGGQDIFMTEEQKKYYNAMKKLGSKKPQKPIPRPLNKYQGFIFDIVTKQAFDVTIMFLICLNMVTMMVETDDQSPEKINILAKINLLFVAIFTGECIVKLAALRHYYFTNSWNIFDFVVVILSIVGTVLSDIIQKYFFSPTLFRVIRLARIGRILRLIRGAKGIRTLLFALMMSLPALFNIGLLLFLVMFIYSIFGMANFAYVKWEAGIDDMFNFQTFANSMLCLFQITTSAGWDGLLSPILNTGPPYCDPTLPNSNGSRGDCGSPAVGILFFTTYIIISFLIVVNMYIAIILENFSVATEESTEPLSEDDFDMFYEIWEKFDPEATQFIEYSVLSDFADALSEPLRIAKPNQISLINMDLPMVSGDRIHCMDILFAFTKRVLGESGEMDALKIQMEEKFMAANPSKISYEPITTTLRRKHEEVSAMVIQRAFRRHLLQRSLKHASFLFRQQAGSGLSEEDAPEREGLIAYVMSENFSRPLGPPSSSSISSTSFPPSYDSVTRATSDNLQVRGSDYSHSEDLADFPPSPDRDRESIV
T1 sequence (P22001 whole entry): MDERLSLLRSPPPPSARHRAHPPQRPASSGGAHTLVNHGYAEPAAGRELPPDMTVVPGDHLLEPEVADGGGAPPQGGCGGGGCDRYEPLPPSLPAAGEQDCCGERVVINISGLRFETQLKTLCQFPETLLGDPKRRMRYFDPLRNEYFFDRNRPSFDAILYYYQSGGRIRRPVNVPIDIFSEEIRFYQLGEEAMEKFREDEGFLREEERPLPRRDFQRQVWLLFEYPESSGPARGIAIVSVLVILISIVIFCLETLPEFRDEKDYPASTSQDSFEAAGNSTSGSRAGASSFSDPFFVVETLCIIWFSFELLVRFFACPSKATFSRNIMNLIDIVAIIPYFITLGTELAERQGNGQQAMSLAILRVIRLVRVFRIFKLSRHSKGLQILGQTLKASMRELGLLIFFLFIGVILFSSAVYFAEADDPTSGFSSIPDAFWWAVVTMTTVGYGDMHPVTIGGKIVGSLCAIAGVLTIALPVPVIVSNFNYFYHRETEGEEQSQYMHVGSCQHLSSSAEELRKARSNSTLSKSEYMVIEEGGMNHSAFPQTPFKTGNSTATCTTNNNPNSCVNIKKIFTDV

`NC1=N[C@H](O)[C@H]2[C@H]3O[C@]4(O)O[C@@H]([C@@H](O)[C@@]2(N1)[C@@H]4O)[C@]3(O)CO` [TTX, tetrodotoxin]: at sodium channel SCN5a, the “18° C. [RFUs]” value was 4636.0 RFUs and 5379.0 RFUs and 2882.0 RFUs and 3816.0 RFUs and 4067.0 RFUs and 4401.0 RFUs and 5620.0 RFUs and 5034.0 RFUs.
In the case of Margatoxin, at Kv1.3 (10 min room temperature), the “Increase [%]” value is 3% and 2.93%; the “[rfu]” value is on record as 22479.50 rfu. Moreover, at Kv1.3 (setting [1]), the “Increase [%]” value is 68% and 68.04%; the “[rfu]” value was 47474.00 rfu.
